Here are results for three molecules from patent publication US20100035853A1, “METHOD FOR PREVENTING OR TREATING CISPLATIN-INDUCED NEPHROTOXICITY” (HYOGO COLLEGE OF MEDICINE, priority 2008, published 2010).

Data set [1] can be described thus: Serum IL-18 and other cytokines after Cisplatin treatment (ELISA). It is filed as in vivo, mouse. The settings on record: wild-type BALB/c mice, Cisplatin 20 mg/kg i.p. The method, then:
Levels of serum IL-18 were measured using the specific ELISA kit.
IL-18 concentrations in serum were measured by ELISA purchased from Medical and Biological Laboratories (Tokyo, Japan) in accordance with the manufactures' instructions. Other cytokines such as TNF-α, IFN-γ, IL-1β, IL-10 and MIP-1α were measured respective ELISA kits purchased from R&D Systems Inc (USA).

Data set [2] can be described thus: Survival of wild-type and IL-18KO mice after Cisplatin. It is filed as in vivo, mouse. The note with it: Cisplatin 20 mg/kg i.p.; for dead mice: day 2; for survival rate: day 3. The protocol:
Open and closed symbols show wild-type and IL-18KO mice, respectively.
(§1) As a control, mice were treated with a similar volume of saline.

A short description of data set [3]: Accumulation of Cisplatin in the kidney (platinum ion content of kidney homogenate). It is filed as in vivo, mouse. The settings on record: wild-type vs IL-18KO mice, Cisplatin 20 mg/kg i.p. The method, then: Accumulations of Cisplatin in the kidney were measured as platinum ion content in the kidney homogenate. Open and closed columns show wild-type and IL-18KO mice, respectively.

Data set [4] concerns the target T1, aldosterone receptor (Mus musculus, UniProt Q8VII8).
T1 sequence (Q8VII8 1-978): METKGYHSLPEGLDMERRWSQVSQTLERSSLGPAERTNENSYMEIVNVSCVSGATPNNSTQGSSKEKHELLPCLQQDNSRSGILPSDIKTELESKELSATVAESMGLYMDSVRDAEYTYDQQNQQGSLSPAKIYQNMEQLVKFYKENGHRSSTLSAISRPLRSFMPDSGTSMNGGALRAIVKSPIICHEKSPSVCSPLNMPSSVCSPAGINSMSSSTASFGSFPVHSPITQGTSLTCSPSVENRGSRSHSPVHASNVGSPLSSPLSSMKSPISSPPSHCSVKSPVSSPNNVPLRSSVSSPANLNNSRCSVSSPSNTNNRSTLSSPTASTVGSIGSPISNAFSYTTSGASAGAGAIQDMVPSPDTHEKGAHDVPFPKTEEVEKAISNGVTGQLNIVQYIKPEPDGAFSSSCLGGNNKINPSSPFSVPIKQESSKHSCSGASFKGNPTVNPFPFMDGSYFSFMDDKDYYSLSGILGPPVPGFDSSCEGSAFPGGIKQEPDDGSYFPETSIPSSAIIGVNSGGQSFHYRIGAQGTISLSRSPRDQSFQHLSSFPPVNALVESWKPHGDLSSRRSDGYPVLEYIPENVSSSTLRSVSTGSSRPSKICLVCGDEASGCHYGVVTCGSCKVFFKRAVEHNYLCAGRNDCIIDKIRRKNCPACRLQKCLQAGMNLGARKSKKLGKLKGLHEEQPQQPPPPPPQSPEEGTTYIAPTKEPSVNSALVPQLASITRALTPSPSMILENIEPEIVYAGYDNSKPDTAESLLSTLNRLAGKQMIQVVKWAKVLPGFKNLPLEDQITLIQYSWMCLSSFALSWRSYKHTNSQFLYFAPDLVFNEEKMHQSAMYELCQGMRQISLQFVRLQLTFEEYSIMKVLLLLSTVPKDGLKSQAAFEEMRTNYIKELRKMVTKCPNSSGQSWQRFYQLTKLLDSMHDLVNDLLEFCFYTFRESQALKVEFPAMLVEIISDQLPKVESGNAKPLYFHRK
The method, then: (§2) Open and closed columns show vehicle- and Eplerenone-treated mice, respectively. […] NS; not significant.
(§3) Blood urea nitrogen (BUN) and creatinine were enzymatically measured by HITACHI 7180 auto-analyzer. Aldosterone level was measured by radioimmuno assay. All of these assays were performed by SRL, Inc (Tokyo, Japan).

The target of data set [5] is T1, aldosterone receptor. The experiment in a line: Effect of Eplerenone on Cisplatin-induced increase in plasma aldosterone in wild-type mice. It is filed as in vivo. Also on record: Wild-type male BALB/c mice (WT mice) aged 9-10 weeks-old were purchased; from tissue; host or cells: whole animal: wild-type male BALB/c mice dosed orally, with read-outs in plasma. The note with it: Eplerenone 20 mg/kg orally, observation for 3 days, significant at day 1 and later. The protocol:
as §2, §3

Data set [6] can be described thus: Exogenous recombinant mouse IL-18 in Cisplatin-treated IL-18KO mice: plasma BUN and creatinine. It is filed as in vivo. The settings on record: IL-18KO mice supplemented with rmIL-18 (2 μg/body), Cisplatin 20 mg/kg i.p. The protocol:
Plasma levels of BUN and creatinine were measured as shown in Materials and Methods. Open, closed and grey-colored columns show wild-type, IL-18KO and IL-18-supplemented IL-18KO mice, respectively. […] NS; not significant.
as §1, §3

Data set [7] is described as follows: Induction of plasma aldosterone by recombinant IL-18 in wild-type mice. It is filed as in vivo. The protocol: Wild-type mice were treated with various doses of IL-18 (0.2, 0.6 and 2 mg/mouse), then blood samples were collected at 5 hours after IL-18 treatment. […] NS; not significant.
as §3

Where [8] appears, read: wild-type mice, Eplerenone 20 mg/kg orally 30 min pre, day 1, day 2, Cisplatin 20 mg/kg i.p.

Regarding `N.N.[Cl][Pt][Cl]` [Cisplatin], the “levels of IL-18 in the circulation” value in data set [1] (around day 3) was “over 1000 pg/ml”. Further, the “other cytokines (TNF-α, IFN-γ, IL-1β, IL-10, MIP-1α) in serum” value in data set [1] (when IL-18 was at maximal levels (data not shown)) is given as “undetectable”. In addition, in data set [2] (IL-18KO mice), the dead mice result was “no mouse was dead” and the survival rate amounted to 92.9%. Also, in data set [2] (wild-type mice), the dead mice result is on record as “six of fourteen” and the survival rate is given as 28.6%. Besides, the “quantity of platinum ion in the kidney” value in data set [3] (day 1) is “almost equivalent”. Further, the “rate of excretion of platinum ion from the kidney” value in data set [3] (day 2 and 3) is reported as “much rapid in IL-18KO mice than in wild-type mice”.

As for `COC(=O)[C@@H]1CC2=CC(=O)CC[C@]2(C)[C@@]23O[C@@H]2C[C@@]2(C)[C@@H](CC[C@@]24CCC(=O)O4)[C@H]13` [Eplerenone], the “inhibition of increased creatinine level vs vehicle” value at aldosterone receptor [4] (day 1 and later after Cisplatin treatment) is recorded as “significant inhibition”. At aldosterone receptor [4] (day 2 and 3 after Cisplatin treatment), the “inhibition of increased BUN level vs vehicle” value was “Significant inhibition”. The “renal toxicity of Cisplatin (summary statement)” value at aldosterone receptor [4] (wild-type mice) is on record as “strongly suppressed”. Besides, the “lethality of Cisplatin” value at aldosterone receptor [4] (wild-type mice treated with Eplerenone (data not shown)) is “almost completely suppressed”. Besides, on aldosterone receptor [4] (setting [8]), the “elevation of plasma BUN” value is listed as “almost completely suppressed” and the “elevation of plasma creatinine” value is given as “almost completely suppressed”. The “increase in plasma aldosterone level induced by Cisplatin” value on aldosterone receptor [5] is “completely inhibited”.

B1: rmIL-18: Recombinant mouse IL-18 donated by GlaxoSmithKline Pharmaceuticals (protein, UniProt P70380 36-192, looked up)
Interleukin-18: NFGRLHCTTAVIRNINDQVLFVDKRQPVFEDMTDIDQSASEPQTRLIIYMYKDSEVRGLAVTLSVKDSKMSTLSCKNKIISFEEMDPPENIDDIQSDLIFFQKRVPGHNKMEFESSLYEGHFLACQKEDDAFKLILKKKDENGDKSVMFTLTNLHQS
As to B1, the “plasma levels of creatinine induced by Cisplatin” value in data set [6] (day 1 to 3) is recorded as “significantly increased”. Besides, the “plasma levels of BUN” value in data set [6] (day 3) is given as “increased to almost equivalent levels with wild-type mice”. Further, the “renal toxicity of exogenously given IL-18 alone” value in data set [7] (wild-type mice (data not shown)) is on record as “did not cause any renal toxicity”. Moreover, the “dose of IL-18 giving significant induction of plasma aldosterone” value in data set [7] (wild-type mice, 5 hours after IL-18 treatment) is listed as “over 0.6 μg”. Also, in data set [7] (wild-type mice, various doses of IL-18, 5 hours after treatment), the “plasma levels of aldosterone” value is “augmented the plasma levels of aldosterone in a dose-dependent manner”.
